{"source": "patent US6806267B1", "about": "“Apoptosis-inducing compounds” (priority 1998, dated 2004)", "key": {"K562 cells": {"tested_on": "K562 cells", "experiment": "Apoptosis in K562 cells, cytospin and staining", "format": "cell-based, human", "settings": "for effect of pretreatment on PBOX-6 induced apoptosis: K562, 1 hour prior to PBOX-6 16 hours; for induction of apoptosis: K562 cells; for protection against PBOX-6 induced apoptosis / effect of tyrosine kinase inhibitor pretreatment on PBOX-6 induced apoptosis: K562; for protection against PBOX-6 induced apoptosis: Vitamin E 1 hour or N-acetylcysteine 24 hours, then PBOX-6 16 hours; for effect of tyrosine kinase inhibitor pretreatment on PBOX-6 induced apoptosis: genistein 100 μM, herbimycin A 5 μM, tyrophostin 200 μM"}, "JNK1 and JNK2": {"tested_on": "JNK1 and JNK2", "format": "cell-based, human", "settings": "K562"}, "HL-60 cells": {"tested_on": "HL-60 cells", "experiment": "Apoptosis in HL-60 cells, cytospin and Rapi-Diff staining", "settings": "for cytotoxicity at 10 µM: Homo sapiens, HL-60, 16 h, read-out: % Apoptosis; for induction of apoptosis at 10 μM / induction of apoptosis at a higher concentration: HL 60 cells; for induction of apoptosis at a higher concentration: higher concentration printed as 10 μM; for protection against PBOX-6 induced apoptosis: HL-60, N-acetylcysteine 5 mM or TEMPO 1 μM, 30 min prior to PBOX-6 8 hours"}, "[1]": {"target": "T1, peripheral-type benzodiazepine receptor (PBR) (Homo sapiens, UniProt P30536)", "T1 construct": "Cell homogenates (50 μg protein) were incubated with 0.5-50 nM [^3H]; PK 11195; endogenous in cells; host or cells: HL-60 cell homogenate", "T1 sequence (P30536 whole entry)": "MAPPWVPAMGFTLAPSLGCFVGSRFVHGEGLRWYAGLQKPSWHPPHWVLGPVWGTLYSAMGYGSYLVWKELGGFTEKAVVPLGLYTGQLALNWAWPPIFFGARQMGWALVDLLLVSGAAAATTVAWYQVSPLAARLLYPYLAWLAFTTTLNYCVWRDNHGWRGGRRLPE", "experiment": "Radioligand binding assay, inhibition of [^3H]PK 11195 binding to HL-60 homogenates", "settings": "for Ki: HL-60 homogenates, 2 nM [^3H]PK 11195, mean±SEM, read-out: Inhibition of [^3H]PK 11195 binding to the PBR, Ki value", "description": "HL-60 cells were harvested by centrifugation at 600 g for 5 min and washing in phosphate-buffered saline. The resulting cell pellet was homogenised in 50 mM Tris/HCl buffer, pH 7.4 (2 ml), using an Ultraturrax homogeniser (10 sec) and then passed 5 times through a 21 gauge needle. Cell homogenates (50 μg protein) were incubated with 0.5-50 nM [^3H] PK 11195 in 50 mM Tris/HCl buffer, pH 7.4 (incubation buffer), in a total volume of 0.5 ml on ice. Total and non-specific/non-saturable binding in each case was determined in the absence and presence of 10 μM unlabelled PK 11195 respectively. All samples were incubated in triplicate for 60 min. The incubation mixtures were then filtered and counted as previously described (O'Beirne, et al., 1988). When testing the potency of a compound to inhibit [^3H] PK 11195 binding, samples were incubated with 2 nM [3H] PK 11195 and various concentrations (0.1 nM to 1 μM) of compound and subsequently treated exactly as above. The resulting Ki values were then generated by the use of the computer programs EBDA and LIGAND.\nThe amount of radioactivity bound in the presence of the displacer was expressed as a percentage of control bonding and the values represent the mean±SEM of triplicate determinations from one representative experiment performed at least twice. The Ki values were obtained as described in Methods section."}, "rat C6 glioma": {"tested_on": "rat C6 glioma", "settings": "dose-dependent; cited from earlier work"}, "[2]": {"tested_on": "human 132 l N1 astrocytoma", "settings": "dose-dependent; cited from earlier work"}, "[3]": {"tested_on": "CML cell lines K562, KYO.1 and Lama 84", "experiment": "Apoptosis in CML cell lines, cytospin and staining", "format": "cell-based, human", "settings": "for induction of apoptosis at 10 μM / induction of apoptosis at 100 μM: CML cells"}, "[4]": {"tested_on": "tyrosine phosphorylated proteins", "experiment": "Protein tyrosine phosphorylation Western blot, K562 cells", "format": "cell-based, human", "settings": "K562, 100 μM in DMSO, 1 hr prior to PBOX-6", "description": "Jurkat and CML cells (5×10^6) were harvested by centrifuigation at 1800 g for 10 min at 4° C. After being washed once with ice-cold phosphate-buffered saline, the cell pellet was suspended in 100 μl of ice-cold lysis buffer (50 mM Tris-HCl, pH 8.0, 150 mM NaCl, 0.1%.SDS, 1% Triton X-100, 1 mM sodium 1 mM phenylmethylsulfonyl, 10 ng/ml leupeptin and 10 ng/ml of aprotinin). The cells were left to sit on ice for 10 min and then centrifuged at 20,000 g for 20 min. The resulting supernatant was stored at −70° C. until measurement of tyrosine phosphorylation. Protein determination was measured by using the Bradford assay. Equal amounts of protein were resolved by SDS-polyacrylamide gel electrophoresis in 15% gels and transferred onto polyvinylidene difluoride (PVDF) membranes. Membranes were blocked with Tris-buffered saline with Tween 20 (10 mM Tris-HCl, pH 8.0, 150 mM NaCl, 0.05% Tween 20) containing 1% w/v BSA and probed with anti-phosphotyrosine antibody. Blots were washed, incubated with goat anti-mouse IgG peroxidase conjugate and developed by ECL according to the manufacturer's recommendations."}}, "data": [{"compound": "COc1cc([C@@H]2c3cc4c(cc3[C@@H](O[C@@H]3O[C@@H]5CO[C@@H](C)O[C@H]5[C@H](O)[C@H]3O)[C@H]3COC(=O)[C@H]23)OCO4)cc(OC)c1O", "note": "[etoposide]", "values": [{"measurement": "effect of pretreatment on PBOX-6 induced apoptosis", "setting": "K562 cells", "value": "protects against apoptosis"}, {"measurement": "apoptosis", "setting": "K562 cells; K562, up to 24 hours", "value": "failed to undergo apoptosis"}, {"measurement": "induction of apoptosis", "setting": "K562 cells", "value": "does not induce apoptosis"}, {"measurement": "effect of Topo II inhibitor pretreatment on PBOX-6 induced JNK activation", "setting": "JNK1 and JNK2", "value": "failed to prevent against PBOX-6 induced activation of JNK"}]}, {"compound": "COc1ccc(C2=C(OC(=O)c3ccncc3)c3cccn3-c3ccccc3S2)cc1", "note": "[PBOX-28, 7-Isonicotinoyloxy-6-p-methoxyphenylpyrrolo[2,1-d][1,5]-benothiazepine]", "values": [{"measurement": "cytotoxicity at 10 µM", "setting": "HL-60 cells", "value": "31.1 ± 1.7", "unit": "%"}]}, {"compound": "CNC(=O)OC1=C(c2cccc3ccccc23)Oc2ccccc2-n2cccc21", "note": "[PBOX-7, 7-[(Methylcarbamoyl)oxy]-6-(1-naphthyl)pyrrolo[2,1-d][1,5]-benzoxazepine]", "values": [{"measurement": "Ki", "setting": "[1]", "value": "1.7 ± 0.7", "unit": "nM"}, {"measurement": "degree of necrosis", "setting": "HL-60 cells; HL-60 cells, 10 μM, 16 hours", "value": "negligible"}, {"measurement": "cytotoxicity at 10 µM", "setting": "HL-60 cells", "value": "40.7 ± 2.5", "unit": "%"}]}, {"compound": "CCCC(=O)OC1=C(c2ccc(OC)cc2)[S+]([O-])c2ccccc2-n2cccc21", "note": "(stereo not shown) [PBOX-30, 7-(Butyryloxy)-6-(p-methoxyphenyl)pyrrolo[2,1-d][1,5]-benzothiazepine 5-Oxide]", "values": [{"measurement": "cytotoxicity at 10 µM", "setting": "HL-60 cells", "value": "33.1 ± 1.6", "unit": "%"}]}, {"compound": "CCN(CC)C(=O)OC1=C(c2ccc(C)cc2)Oc2ccccc2-n2cccc21", "note": "[PBOX-21]", "values": [{"measurement": "inhibition of proliferation, without being cytotoxic", "setting": "rat C6 glioma", "value": "inhibit at micromolar concentrations"}, {"measurement": "inhibition of proliferation, without being cytotoxic", "setting": "[2]", "value": "inhibit at micromolar concentrations"}]}, {"compound": "CC(=O)OC1=C(c2cccc3ccccc23)Oc2ccccc2-n2cccc21", "note": "[PBOX-4, 7-Acetoxy-6-(1-naphthyl)pyrrolo[2,1-d][1,5]benzoxazepine]", "values": [{"measurement": "Ki", "setting": "[1]", "value": "1.9 ± 2.3", "unit": "nM"}, {"measurement": "cytotoxicity at 10 µM", "setting": "HL-60 cells", "value": "42.1 ± 0.6", "unit": "%"}]}, {"compound": "CCN(CC)C(=O)OC1=C(c2ccccc2)Oc2cccnc2-n2cccc21", "note": "[PBOX-26, 7-((Diethylcarbamoyl)oxy)-6-phenylpyrrolo[1,2-d]pyrido[3,2-b][1,4]oxazepine]", "values": [{"measurement": "cytotoxicity at 10 µM", "setting": "HL-60 cells", "value": "7.8 ± 2.3", "unit": "%"}]}, {"compound": "CC(=O)OC1=C(c2ccc(C)cc2)Oc2ccccc2-n2cccc21", "note": "[PBOX-24, 7-Acetoxy-6p-tolylpyrrolo[2,1-d][1,5]benzoxazepine]", "values": [{"measurement": "cytotoxicity at 10 µM", "setting": "HL-60 cells", "value": "7 ± 1.2", "unit": "%"}]}, {"compound": "CC(=O)OC1=C(c2cccc3ccccc23)Oc2cccnc2-n2cccc21", "note": "[PBOX-12, 7-Acetoxy-6-(1-naphthyl)pyrrolo[1,2-d]pyrido[3,2-b][1,4]oiazepine]", "values": [{"measurement": "cytotoxicity at 10 µM", "setting": "HL-60 cells", "value": "27.1 ± 2.7", "unit": "%"}]}, {"compound": "CCNC(=O)OC1=C(c2ccccc2)Oc2ccccc2-n2cccc21", "note": "[PBOX-25, 7-[(Ethylcarbamoyl)oxy]-6-phenylpyrrolo[2,1-d][1,5]benzoxazepine]", "values": [{"measurement": "cytotoxicity at 10 µM", "setting": "HL-60 cells", "value": "19.2 ± 3", "unit": "%"}]}, {"compound": "Vitamin E", "values": [{"measurement": "protection against PBOX-6 induced apoptosis", "setting": "K562 cells", "value": "failed to protect"}]}, {"compound": "CN1C(=O)CN=C(c2ccc(Cl)cc2)c2cc(Cl)ccc21", "note": "[Ro5-4864, 7-chloro-5-(4-chlorophenyl)-1,3-dihydro-1-methyl-2-H-1,4-benzodiazepin-2-one]", "values": [{"measurement": "induction of apoptosis at 10 μM", "setting": "[3]", "value": "failed to induce apoptosis"}, {"measurement": "induction of apoptosis at 100 μM", "setting": "[3]", "value": "apoptosis was induced, although not to the same extent"}, {"measurement": "inhibition of proliferation, without being cytotoxic", "setting": "rat C6 glioma", "value": "inhibit at micromolar concentrations"}, {"measurement": "inhibition of proliferation, without being cytotoxic", "setting": "[2]", "value": "inhibit at micromolar concentrations"}, {"measurement": "induction of apoptosis at 10 μM", "setting": "HL-60 cells; 10 μM", "value": "did not induce apoptosis"}, {"measurement": "induction of apoptosis at a higher concentration", "setting": "HL-60 cells", "value": "induced apoptosis"}]}, {"compound": "z-DEVD-fmk [reference compound]", "values": [{"measurement": "effect of pretreatment on PBOX-6 induced apoptosis", "setting": "[3]", "value": "failed to prevent the induction of apoptosis"}, {"measurement": "effect of pre-treatment on morphological signs of apoptosis induced by PBOX-6", "setting": "HL-60 cells", "value": "inhibited"}]}, {"compound": "O=c1c(-c2ccc(O)cc2)coc2cc(O)cc(O)c12", "note": "[genistein, reference compound]", "values": [{"measurement": "effect of tyrosine kinase inhibitor pretreatment on PBOX-6 induced apoptosis", "setting": "K562 cells", "value": "completely inhibited the induction of apoptosis"}, {"measurement": "effect of pretreatment on PBOX-6 induced protein phosphorylation", "setting": "[4]", "value": "prevented the phosphorylation of these two proteins"}]}, {"compound": "O=C1c2c(O)ccc(O)c2C(=O)c2c(NCCNCCO)ccc(NCCNCCO)c21", "note": "[mitoxanthrone]", "values": [{"measurement": "effect of pretreatment on PBOX-6 induced apoptosis", "setting": "K562 cells", "value": "protects against apoptosis"}, {"measurement": "induction of apoptosis", "setting": "K562 cells", "value": "does not induce apoptosis"}]}, {"compound": "CO[C@H]1[C@@H](OC)C[C@H](C)[C@@H](OC)C2=CC(=O)C=C(NC(=O)/C(C)=C/C=C\\[C@H](OC)[C@@H](OC(N)=O)/C(C)=C/[C@@H]1C)C2=O", "note": "[herbimycin A]", "values": [{"measurement": "effect of tyrosine kinase inhibitor pretreatment on PBOX-6 induced apoptosis", "setting": "K562 cells", "value": "reduced levels of apoptosis"}]}, {"compound": "CCC(C)N(C)C(=O)c1cc2ccccc2c(-c2ccccc2Cl)n1", "note": "(stereo not shown) [PK 11195, 1-(2-chlorophenyl)-N-methyl-N-(1-methylpropyl)-3-isoquinolinecarboxamide]", "values": [{"measurement": "induction of apoptosis at 10 μM", "setting": "[3]", "value": "failed to induce apoptosis"}, {"measurement": "induction of apoptosis at 100 μM", "setting": "[3]", "value": "apoptosis was induced, although not to the same extent"}, {"measurement": "inhibition of proliferation, without being cytotoxic", "setting": "rat C6 glioma", "value": "inhibit at micromolar concentrations"}, {"measurement": "inhibition of proliferation, without being cytotoxic", "setting": "[2]", "value": "inhibit at micromolar concentrations"}, {"measurement": "induction of apoptosis at 10 μM", "setting": "HL-60 cells; 10 μM", "value": "did not induce apoptosis"}, {"measurement": "induction of apoptosis at a higher concentration", "setting": "HL-60 cells", "value": "induced apoptosis"}]}, {"compound": "CCC(C)N(C)C(=O)c1cc2ccccc2c(-c2ccccc2Cl)n1", "note": "(stereo not shown) [[^3H] PK 11195, reference compound]", "values": [{"measurement": "Bmax of [^3H] PK 11195 binding", "setting": "[1]; HL-60 cell homogenates", "value": "9.5±1.5 pmol/mg of protein"}]}, {"compound": "CC1(C)CCCC(C)(C)N1[O]", "note": "[TEMPO, reference compound]", "values": [{"measurement": "protection against PBOX-6 induced apoptosis", "setting": "HL-60 cells", "value": "Neither of these compounds were found to protect"}]}, {"compound": "CC(=O)OC1=C(c2cccc3ccccc23)Sc2ccccc2-n2cccc21", "note": "[PBOX-9, 7-Acetoxy-6-(1-naphthyl)pyrrolo[2,1-d][1,5]benzothiazepine]", "values": [{"measurement": "cytotoxicity at 10 µM", "setting": "HL-60 cells", "value": "40.4 ± 3", "unit": "%"}]}, {"compound": "CN(C)C(=O)OC1=C(c2cccc3ccccc23)Sc2ccccc2-n2cccc21", "note": "[PBOX-8, 7-((Dimethylcarbamoyl)oxy)-6-(1-naphthyl)pyrrolo[2,1-d][1,5]benzothiazepine]", "values": [{"measurement": "cytotoxicity at 10 µM", "setting": "HL-60 cells", "value": "38.6 ± 3.1", "unit": "%"}]}, {"compound": "CC(=O)N[C@@H](CS)C(=O)O", "note": "[N-acetylcysteine, reference compound]", "values": [{"measurement": "protection against PBOX-6 induced apoptosis", "setting": "K562 cells", "value": "failed to protect"}, {"measurement": "protection against PBOX-6 induced apoptosis", "setting": "HL-60 cells", "value": "Neither of these compounds were found to protect"}]}]}
